These results are taken from US8288390B2, “Benzofuran derivatives” (Takeda Pharmaceutical Company Limited, priority 2009, dated 2012).

In one assay the test system is rat mixed glial culture. Kind of assay: Activity of promoting neuronal neogenesis in rat mixed glial culture. It is filed as cell-based. As to conditions: compound 1 μM + rhIGF-1 100 ng/ml, 3 days culture, absorbance at 450 nm (class III beta-tubulin antibody), control rhIGF-1 only = 100%; for activity at 1 µM: Rattus norvegicus, 72 h, read-out: Increase Ratio of the Absorbance (% control). How it is done: From a three-day old SD rat, hippocampus and cerebral cortex were removed. By using a kit of dispersion liquid for neuronal cells (MB-X9901, manufactured by SUMITOMO BAKELITE CO., LTD.), cell suspension was prepared and then seeded on a 96-well plate coated with collagen Type I (4860-010, manufactured by Asahi Techno Glass Co., Ltd.) to 10^5 cells/well. Under the condition of 37° C. and 5% CO2, the cells were cultured for four days in a growth medium (D-MEM/F12 with 10% FBS, comprising PS).
After culturing, the medium was exchanged with a medium for differentiation (D-MEM/F12, comprising PS), added with rhIGF-1 (R&D Systems, 291-G1-250, final concentration of 100 ng/ml) and the compound to 1 μM, followed by further culture for three days. Cultured cells were fixed with 4% paraformaldehyde-PBS (manufactured by MUTO PURE CHEMICALS CO., LTD.) and subjected to membrane penetration using 0.1% Triton X-100 PBS, followed by blocking with Block Ace solution (UK-B80, manufactured by Dainippon Sumitomo Pharma Co., Ltd.). As a primary antibody, Anti-neuron-specific class III beta-tubulin antibody (R&D Systems, MAB1195, clone Tuj-1) was used after 1000× dilution. As a secondary antibody, Anti-Mouse Ig, HRP-Linked F (ab′) 2 Fragment Sheep (Amersham Biosciences, NA9310) was used after 10000× dilution. For washing process, the plate washer (BIO-TEK INSTRUMENTS ELX405) was used. For a chromogenic reaction, the reaction was carried out for 10 minutes using TMB Microwell Peroxidase Substrate System (Kirkegaard & Perry Laboratories, 50-76-00), followed by terminating the reaction according to the addition of 1M phosphoric acid. By using the plate reader (Labsystems Multiskan BICHROMATIC), absorbance at 450 nm was measured.
The absorbance for the case in which no compound is added (i.e., control, rhIGF-1 only) was 100%, and the increase ratio of the absorbance for the compound addition (i.e., compound+rhIGF-1) compared to the control was obtained as % control. Activity of the each compound for promoting neuronal differentiation that is measured according to the above method is summarized in Table 9 and Table 10.

For another assay, the system named is Akt protein. Kind of assay: Activity of inhibiting Akt protein degradation in rat mixed glial culture. As to conditions: compound 1 μM + rhIGF-1 100 ng/ml, 10 minutes at 37° C.; Akt calibrated with ERK; no addition = 100%, rhIGF-1 only = 0%. Format: cell-based. How it is done: The mixed glial cells used in the Test example 1 were seeded on a 6-well plate coated with collagen Type I (manufactured by Asahi Techno Glass Co., Ltd.) to 4×10^6 cells/well. Under the condition of 37° C. and 5% CO2, the cells were cultured for four days in a growth medium (D-MEM/F12 with 10% FBS, comprising PS). After that, the medium was exchanged with a serum-free medium (D-MEM/F12, comprising PS) and the cells were subjected to starvation for 4 hours under the condition of 37° C. and 5% CO2.
Next, rhIGF-1 (R&D Systems, 291-G1-250, final concentration 100 ng/ml) and the compound were added to obtain 1 μM and reacted in a water bath incubator at 37° C. for 10 minutes. Culture supernatant was aspirated off, 150 μL of RIPA (50 mM Tris-HCl pH7.5, 5 mM EDTA, 100 mM NaCl, 30 mM NaF, 5 mM sodium diphosphate, 137 mg/l pepstatin A, 2.5 KIU/l aprotinin, 1% NP-40, 6 mM sodium deoxycholate, 1 μM microcystinLR, 1 μM Z-Leu-Leu-Nva-H(aldehyde), 48 μM leupeptin, 96 μM 4-(2-aminoethyl)benzenesulfonyl fluoride-HCl, 1 mM sodium orthovanadate) was added thereto, and the reaction was terminated. After the termination of the reaction, the cell lysate was recovered by using a cell scraper on ice. Finally, the cell lysate was centrifuged for 30 minutes at 15000 rpm and the supernatant was taken as a cell extract.
Proteins were recovered from the cell extract by using trichloroacetic acid, and quantified according to Lowry method. Standard curve was established with bovine serum albumin. Based on the measured values, each cell extract was diluted with RIPA to prepare it in constant concentration (10 μg/lane). SDS-PAGE was carried out under reducing condition using 10% acrylamide (45 mA, 1.5 hours). After transferring to a PVDF membrane (0.13 A, 1 hour), reaction with an antibody was carried out. As a primary antibody, Akt (Cell Signaling, 9272) and ERK (Santa Cruz, sc-94) were used with the dilution ratio of 1000. As a secondary antibody, HRP-labeled anti-rabbit antibody (NA9340V, manufactured by Amersham) was used with the dilution ratio of 12500. Then, using ImmunoStar reagent (291-55203, manufactured by Wako Pure Chemical Industries, Ltd.), X-ray film detection was carried out. Quantification of the results was carried out by using GS-800 Calibrated Densitometer (manufactured by BioRad), and then the band strength was converted into the numerals by multiplying the absorbance originating from bands of Akt and ERK-1&2 by the area. Akt was calibrated with ERK to give the numeral values.
Inhibitory activity on Akt degradation was expressed as inhibition ratio. Specifically, the case in which neither the compound nor rhIGF-1 was added (no addition) is 100% and the case in which only rhIGF-1 was added is 0%, and then with the value measured from compound+rhIGF-1, the inhibition ratio was obtained. Inhibition ratio(%)=[(compound+rhIGF-1)−(rhIGF-1)]÷[(no addition)−(rhIGF-1)]×100

Another assay has as its system Tg2576 transgenic mice. Kind of assay: Amelioration of cognitive function in novel object recognition test. Format: in vivo, mouse. As to conditions: female Tg2576 mice, 10 mg/kg/day orally once a day for 3 weeks; retention 24 hours after training; recovery ratio vs vehicle Tg2576 and wild type. The procedure: Female Tg2576 transgenic mice and wild-type littermates were used at 8-9 months old. All animals were housed in room maintained at 24±1° C. with a 12-h light/dark cycle. Lights on 7:00 a.m. Food chows (Oriental Yeast Co. Tokyo, Japan) and tap water were provided ad libitum.
The compounds (10 mg/kg/day) or vehicle (0.5% methylcellulose, Wako Pure Chemical Industries Limited, Osaka, Japan) was orally administered to the mice once a day for 3 weeks. After the gavages, the novel object recognition test was performed. The test procedure consisted of three sessions: habituation, training, and retention. In the training and retention sessions, observer was not informed of the group name or animal number (blind method). 4-5 mice were habituated to the box (30×30×30 high cm), with 30 minutes of exploration in the absence of objects (habituation session). During the training session, two objects were placed in the back corner of the box. A mouse was then placed at another corner of the box and the total time spent exploring the two objects was recorded for 5 minutes. During the retention session, animals were placed back into the same box 24 hours after the training session, in which one of the familiar objects used during training was replaced with a novel object. The animals were then allowed to explore freely for 5 minutes and the time spent exploring each object was recorded. Throughout the experiments, the objects were used in a counterbalanced manner in terms of an environmental effect, their physical complexity and emotional neutrality. A preference index (PI), a ratio of the amount of time spent exploring the novel object over the total time spent exploring both objects, was used to measure cognitive function. Furthermore, recovery ratio was calculated by following formula; [Recovery ratio]=[[PI of Tg2576 mice treated by each compound]−[PI of Tg2576 mice treated by vehicle]]/[[PI of wild type mice]−[PI of Tg2576 mice treated by vehicle]].×100(%)

Turning to `COc1ccc(N2CCN(c3c(C)c(C)c4c(c3C)CC(C)O4)CC2)cc1` (stereo not shown) [Example 20, 1-(4-Methoxyphenyl)-4-[2,4,6,7-tetramethyl-2,3-dihydro-1-benzofuran-5-yl]piperazine], the activity at 1 µM in the assay with rat mixed glial culture is 187%. Also, the “Inhibition of Akt degradation (%)” value in the assay with Akt protein came out at 73.9%. On the same counts, the results for `COc1ccc(N2CCN(c3c(C)c(C)c4c(c3C)C[C@@H](C)O4)CC2)cc1` [Example 21, 1-(4-Methoxyphenyl)-4-[(2R)-2,4,6,7-tetramethyl-2,3-dihydro-1-benzofuran-5-yl]piperazine] are 212% and 121.3%. On the same counts, the results for `COc1ccc(N2CCN(c3c(C)c(C)c4c(c3C)CC(C)(C)O4)CC2)c(OC)c1` [Example 1, 1-(2,4-Dimethoxyphenyl)-4-(2,2,4,6,7-pentamethyl-2,3-dihydro-1-benzofuran-5-yl)piperazine] are 407% and 73.3%. As to `C=Cc1c2c(c(C)c(C)c1N1CCN(c3ccc(OC)cc3)CC1)OC(C)(C)C2` [Example 8, 1-(4-Ethenyl-2,2,6,7-tetramethyl-2,3-dihydro-1-benzofuran-5-yl)-4-(4-methoxyphenyl)piperazine], in the assay with rat mixed glial culture, the activity at 1 µM was determined as 242%. On the same count and under the same terms, the result for `CCc1c2c(c(C)c(C)c1N1CCN(c3ccc(OC)cc3)CC1)OC(C)(C)C2` [Example 9, 1-(4-Ethyl-2,2,6,7-tetramethyl-2,3-dihydro-1-benzofuran-5-yl)-4-(4-methoxyphenyl)piperazine] reads 228%; that for `Cc1nn(C)c(C)c1N1CCN(c2c(C)c(C)c3c(c2C)CC(C)(C)O3)CC1` [Example 117, 1-(2,2,4,6,7-Pentamethyl-2,3-dihydro-1-benzofuran-5-yl)-4-(1,3,5-trimethyl-1H-pyrazole-4-yl)piperazine], 100%; that for `COc1ccc(N2CCN(c3c(C)c(C)c4c(c3C)CC(C)(C)O4)CC2)cn1` [Example 40, 1-(6-Methoxypyridin-3-yl)-4-(2,2,4,6,7-pentamethyl-2,3-dihydro-1-benzofuran-5-yl)piperazine], 341%.

For `COc1ccc(N2CCN(c3c(C)c(C)c4c(c3C)CC(C)(CO)O4)CC2)cc1` (single isomer, unassigned; (-)) [Example 143, (−)-{5-[4-(4-methoxyphenyl)piperazin-1-yl]-2,4,6,7-tetramethyl-2,3-dihydro-1-benzofuran-2-yl}methanol], the “Increase Ratio of the Absorbance (% control)” value in the assay on rat mixed glial culture was greater than 500 % control. On to `COc1ccc(N2CCN(c3c(C)c4c(c(OC)c3C)OC(C)C4)CC2)cc1` (stereo not shown) [Example 48, 1-(4-Methoxyphenyl)-4-(7-methoxy-2,4,6-trimethyl-2,3-dihydro-1-benzofuran-5-yl)piperazine], for which the activity at 1 µM with rat mixed glial culture was greater than 500%. As for `COc1ccc(N2CCN(c3c(C)c4c(c(OC)c3C)OC(C)(C)C4)CC2)cc1` [Example 47, 1-(4-Methoxyphenyl)-4-(7-methoxy-2,2,4,6-tetramethyl-2,3-dihydro-1-benzofuran-5-yl)piperazine], the “Preference index (% recovery)” value in the assay on Tg2576 transgenic mice was 82.2 % recovery. In the assay on rat mixed glial culture, the activity at 1 µM is greater than 500%. For the same compound, the “Inhibition of Akt degradation (%)” value with Akt protein stood at 55.2%. Take `CCOc1ccc(N2CCN(c3c(C)c4c(c(OC)c3C)OC(C)(C)C4)CC2)cc1` [Example 65, 1-(4-Ethoxyphenyl)-4-(7-methoxy-2,2,4,6-tetramethyl-2,3-dihydro-1-benzofuran-5-yl)piperazine]: the activity at 1 µM in the assay on rat mixed glial culture is greater than 500%. The “Inhibition of Akt degradation (%)” value in the assay with Akt protein is given as 121.0%. Consider `CCOc1ccc(N2CCN(c3c(C)c4c(c(OC)c3C)OC(C)C4)CC2)cc1` (stereo not shown) [Example 56, 1-(4-Ethoxyphenyl)-4-(7-methoxy-2,4,6-trimethyl-2,3-dihydro-1-benzofuran-5-yl)piperazine], for which the activity at 1 µM with rat mixed glial culture is greater than 500%.

`COc1ccc(N2CCN(c3c(C)c(C)c4c(c3-c3ccoc3)CC(C)(C)O4)CC2)cc1` [Example 6, 1-(4-Furan-3-yl-2,2,6,7-tetramethyl-2,3-dihydro-1-benzofuran-5-yl)-4-(4-methoxyphenyl)piperazine]: the activity at 1 µM in the assay on rat mixed glial culture is greater than 500%.

Consider `COc1ccc(C2CN(c3c(C)c(C)c4c(c3C)CC(C)(C)O4)CCN2C)cc1` (stereo not shown) [Example 13, 2-(4-Methoxyphenyl)-1-methyl-4-(2,2,4,6,7-pentamethyl-2,3-dihydro-1-benzofuran-5-yl)piperazine], for which, in the assay on rat mixed glial culture, the activity at 1 µM was found to be 265%. Regarding `COc1ccc(N2CCN(c3c(C)c(C)c4c(c3C)CC(C)(C)O4)CC2)cc1OC` [Example 37, 1-(3,4-Dimethoxyphenyl)-4-(2,2,4,6,7-pentamethyl-2,3-dihydro-1-benzofuran-5-yl)piperazine], in the assay with rat mixed glial culture, the activity at 1 µM was greater than 500%. The same measure, in the same setting: the result for `Cc1c(C)c(N2CCN(c3ccc(C#N)cc3)CC2)c(C)c2c1OC(C)(C)C2` [Example 90, 4-[4-(2,2,4,6,7-Pentamethyl-2,3-dihydro-1-benzofuran-5-yl)piperazin-1-yl]benzonitrile] reads greater than 500%.
